Laboratory results: US20150322051A1, “Macrocyclic picolinamides as fungicides” (Dow AgroSciences LLC, priority 2014, published 2015)
Where two headings read alike, the source gives them in different places.

How the values were obtained:
[1] = test system: Puccinia triticina; synonym: Puccinia recondita f. sp. tritici (PUCCRT); experiment: Wheat brown rust (PUCCRT) whole-plant fungicidal test; format: in vivo; details: topical; for pest or weed control at 100 ppm: high volume application; for pest or weed control at 121.5 g/ha: low volume (track spray) application, 121.5 g/H
Description: All fungicides were evaluated using the aforementioned method for their activity vs. all target diseases, unless stated otherwise. Wheat leaf blotch and brown rust activity were also evaluated using track spray applications, in which case the fungicides were formulated as EC formulations, containing 0.1% Trycol 5941 in the spray solutions. Wheat plants (variety Yuma) were grown from seed in a greenhouse in 50% mineral soil/50% soil-less Metro mix until the first leaf was fully emerged, with 7-10 seedlings per pot. These plants were inoculated with an aqueous spore suspension of Septoria tritici either prior to or after fungicide treatments. After inoculation the plants were kept in 100% relative humidity (one day in a dark dew chamber followed by two to three days in a lighted dew chamber at 20° C.) to permit spores to germinate and infect the leaf. The plants were then transferred to a greenhouse set at 20° C. for disease to develop. When disease symptoms were fully expressed on the 1st leaves of untreated plants, infection levels were assessed on a scale of 0 to 100 percent disease severity. Percent disease control was calculated using the ratio of disease severity on treated plants relative to untreated plants. Wheat plants (variety Yuma) were grown from seed in a greenhouse in 50% mineral soil/50% soil-less Metro mix until the first leaf was fully emerged, with 7-10 seedlings per pot. These plants were inoculated with an aqueous spore suspension of Puccinia triticina either prior to or after fungicide treatments. […] The plants were then transferred to a greenhouse set at 24° C. for disease to develop. Fungicide formulation, application and disease assessment followed the procedures as described in the Example A.

[2] = test system: Mycosphaerella graminicola; anamorph: Septoria tritici (SEPTTR); experiment: Leaf blotch of wheat (SEPTTR) whole-plant fungicidal test; format: in vivo; details: Zymoseptoria tritici, topical; for pest or weed control at 100 ppm: high volume application; for pest or weed control at 121.5 g/ha: low volume (track spray) application, 121.5 g/H
Description: All fungicides were evaluated using the aforementioned method for their activity vs. all target diseases, unless stated otherwise. Wheat leaf blotch and brown rust activity were also evaluated using track spray applications, in which case the fungicides were formulated as EC formulations, containing 0.1% Trycol 5941 in the spray solutions. Wheat plants (variety Yuma) were grown from seed in a greenhouse in 50% mineral soil/50% soil-less Metro mix until the first leaf was fully emerged, with 7-10 seedlings per pot. These plants were inoculated with an aqueous spore suspension of Septoria tritici either prior to or after fungicide treatments. After inoculation the plants were kept in 100% relative humidity (one day in a dark dew chamber followed by two to three days in a lighted dew chamber at 20° C.) to permit spores to germinate and infect the leaf. The plants were then transferred to a greenhouse set at 20° C. for disease to develop. When disease symptoms were fully expressed on the 1st leaves of untreated plants, infection levels were assessed on a scale of 0 to 100 percent disease severity. Percent disease control was calculated using the ratio of disease severity on treated plants relative to untreated plants.

[3] = 24 h, 1 Day Protectant, read-out: High Volume activity at 100 ppm PUCCRT 1DP (% disease control rating)
[4] = 72 h, 3 Day Curative, read-out: High Volume activity at 100 ppm PUCCRT 3DC (% disease control rating)
[5] = 24 h, 1 Day Protectant, read-out: High Volume activity at 100 ppm SEPTTR 1DP (% disease control rating)
[6] = 72 h, 3 Day Curative, read-out: High Volume activity at 100 ppm SEPTTR 3DC (% disease control rating)
[7] = 24 h, 1 Day Protectant, read-out: Low Volume activity at 121.5 g/H PUCCRT 1DP (% disease control rating)
[8] = 72 h, 3 Day Curative, read-out: Low Volume activity at 121.5 g/H PUCCRT 3DC (% disease control rating)
[9] = 24 h, 1 Day Protectant, read-out: Low Volume activity at 121.5 g/H SEPTTR 1DP (% disease control rating)
[10] = 72 h, 3 Day Curative, read-out: Low Volume activity at 121.5 g/H SEPTTR 3DC (% disease control rating)

Structure (SMILES) | pest or weed control at 100 ppm [1, 3] | pest or weed control at 100 ppm [1, 4] | pest or weed control at 100 ppm [2, 5] | pest or weed control at 100 ppm [2, 6] | pest or weed control at 121.5 g/ha [1, 7] | pest or weed control at 121.5 g/ha [1, 8] | pest or weed control at 121.5 g/ha [2, 9] | pest or weed control at 121.5 g/ha [2, 10]
COc1ccnc(C(=O)N[C@H]2CCC[C@H](CCC(C)C)[C@@H](Cc3ccccc3)[C@H](C)OC2=O)c1O [Compound 73] | > 70% | < 70% | > 70% | > 70% | – | – | – | –
COc1ccnc(C(=O)N[C@H]2CCC[C@H](CCC(C)C)[C@@H](C3CCCC3)[C@H](C)OC2=O)c1OC(C)=O [Compound 43] | – | – | – | – | > 70% | < 70% | > 70% | > 70%
CCC[C@H]1CCC[C@H](NC(=O)c2nccc(OC)c2O)C(=O)O[C@@H](C)[C@@H]1Cc1ccccc1 [Compound 82] | > 70% | > 70% | < 70% | > 70% | – | – | – | –
CCOCC(=O)OCOc1c(OC)ccnc1C(=O)N[C@H]1CCC[C@H](Cc2ccccc2)[C@@H](CCc2ccccc2)[C@H](C)OC1=O [Compound 16] | – | – | – | – | > 70% | > 70% | > 70% | > 70%
CCOCC(=O)OCOc1c(OC)ccnc1C(=O)N[C@H]1CCC[C@H](Cc2ccc(C(F)(F)F)cc2)[C@@H](Cc2ccc(OC(F)(F)F)cc2)[C@H](C)OC1=O [Compound 66] | – | – | – | – | < 70% | < 70% | < 70% | < 70%
CCC[C@H]1CCC[C@H](NC(=O)c2nccc(OC)c2OC(C)=O)C(=O)O[C@@H](C)[C@@H]1Cc1ccc(F)cc1 [Compound 46] | – | – | – | – | > 70% | > 70% | > 70% | > 70%
COc1ccnc(C(=O)N[C@H]2CCC[C@H](CCC(C)C)[C@@H](C3CCCC3)[C@H](C)OC2=O)c1O [Compound 87] | > 70% | < 70% | > 70% | < 70% | – | – | – | –
COc1ccnc(C(=O)N[C@H]2CCC[C@H](Cc3ccc(C(F)(F)F)cc3)[C@@H](Cc3ccc(F)cc3)[C@H](C)OC2=O)c1OCOC(=O)C(C)C [Compound 41] | – | – | – | – | < 70% | < 70% | < 70% | < 70%
COc1ccnc(C(=O)N[C@H]2CCC[C@H](CCCc3ccccc3)[C@@H](CC(C)C)[C@H](C)OC2=O)c1O [Compound 92] | > 70% | < 70% | > 70% | < 70% | – | – | – | –
COc1ccnc(C(=O)N[C@H]2CCC[C@H](Cc3ccc(C(F)(F)F)cc3)[C@@H](Cc3ccccc3)[C@H](C)OC2=O)c1OCOC(C)=O [Compound 26] | – | – | – | – | > 70% | < 70% | > 70% | < 70%
COc1ccnc(C(=O)N[C@H]2CCC[C@H](Cc3ccccc3)[C@@H](CCc3ccccc3)[C@H](C)OC2=O)c1OCOC(C)=O [Compound 15] | – | – | – | – | > 70% | < 70% | > 70% | > 70%
COc1ccnc(C(=O)N[C@H]2CCC[C@H](Cc3ccccc3)[C@@H](Cc3ccc(OC(F)(F)F)cc3)[C@H](C)OC2=O)c1OCOC(C)=O [Compound 68] | – | – | – | – | < 70% | < 70% | < 70% | < 70%
COc1ccnc(C(=O)N[C@H]2CCC[C@H](Cc3ccc(C(F)(F)F)cc3)[C@@H](CC(C)C)[C@H](C)OC2=O)c1OCOC(C)=O [Compound 23] | – | – | – | – | > 70% | < 70% | > 70% | < 70%
COc1ccnc(C(=O)N[C@H]2CCC[C@H](Cc3ccc(C(F)(F)F)cc3)[C@@H](Cc3ccc(F)cc3)[C@H](C)OC2=O)c1OCOC(C)=O [Compound 39] | – | – | – | – | < 70% | < 70% | > 70% | > 70%
CCCC[C@@H]1[C@@H](Cc2ccccc2)CCC[C@H](NC(=O)c2nccc(OC)c2OCOC(C)=O)C(=O)O[C@H]1C [Compound 2, ((2-(((3S,7R,8R,9S)-7-benzyl-8-butyl-9-methyl-2-oxooxonan-3-yl)carbamoyl)-4-methoxypyridin-3-yl)oxy)methyl acetate] | > 70% | > 70% | > 70% | > 70% | > 70% | < 70% | > 70% | > 70%
COc1ccnc(C(=O)N[C@H]2CCC[C@H](Cc3ccc(C(F)(F)F)cc3)[C@@H](Cc3ccc(OC(F)(F)F)cc3)[C@H](C)OC2=O)c1O [Compound 96] | < 70% | < 70% | < 70% | < 70% | – | – | – | –
COc1ccnc(C(=O)N[C@H]2CCC[C@H](CCCc3ccccc3)[C@@H](Cc3ccc(OC(F)(F)F)cc3)[C@H](C)OC2=O)c1OCOC(C)=O [Compound 59] | – | – | – | – | > 70% | < 70% | > 70% | < 70%
COc1ccnc(C(=O)N[C@H]2CCC[C@H](Cc3ccccc3)[C@@H](Cc3ccccc3)[C@H](C)OC2=O)c1OCOC(C)=O [Compound 6] | – | – | – | – | > 70% | > 70% | > 70% | > 70%
CCC[C@H]1CCC[C@H](NC(=O)c2nccc(OC)c2OCOC(C)=O)C(=O)O[C@@H](C)[C@@H]1Cc1ccccc1 [Compound 37] | – | – | – | – | > 70% | > 70% | > 70% | > 70%
COc1ccnc(C(=O)N[C@H]2CCC[C@H](Cc3ccccc3)[C@@H](C3CCCC3)[C@H](C)OC2=O)c1O [Compound 75] | > 70% | < 70% | > 70% | > 70% | – | – | – | –
COc1ccnc(C(=O)N[C@H]2CCC[C@H](Cc3ccc(C(F)(F)F)cc3)[C@@H](CC(C)C)[C@H](C)OC2=O)c1OCOC(=O)C(C)C [Compound 24] | – | – | – | – | < 70% | < 70% | > 70% | < 70%
COc1ccnc(C(=O)N[C@H]2CCC[C@H](Cc3ccc(Cl)cc3)[C@@H](C3CCCC3)[C@H](C)OC2=O)c1OC(C)=O [Compound 28] | – | – | – | – | > 70% | < 70% | > 70% | > 70%
COc1ccnc(C(=O)N[C@H]2CCC[C@H](Cc3ccc(Cl)cc3)[C@@H](CC(C)C)[C@H](C)OC2=O)c1OCOC(C)=O [Compound 12] | – | – | – | – | > 70% | < 70% | > 70% | > 70%
COc1ccnc(C(=O)N[C@H]2CCC[C@H](Cc3ccccc3)[C@@H](C3CCCC3)[C@H](C)OC2=O)c1OC(C)=O [Compound 9] | – | – | – | – | > 70% | < 70% | > 70% | > 70%
